Laboratory results from patent publication US20230234936A1, “COMPOUND FOR TARGETING AND DEGRADING PROTEIN, AND PREPARATION METHOD THEREFOR AND USE THEREOF” (SHANGHAI LEADINGTAC PHARMACEUTICAL CO., LTD., priority 2020, published 2023).

Assays:
[1] = target: T1, IRAK4 protein in THP-1 cells (Homo sapiens, UniProt Q9NWZ3); assay: Degradation of IRAK4 in THP-1 cells (Western blot); type: cell-based; conditions: 24 hours, compound 1-3000 nM
T1 construct: endogenous in cells; host or cells: THP-1
T1 sequence (Q9NWZ3 1-460): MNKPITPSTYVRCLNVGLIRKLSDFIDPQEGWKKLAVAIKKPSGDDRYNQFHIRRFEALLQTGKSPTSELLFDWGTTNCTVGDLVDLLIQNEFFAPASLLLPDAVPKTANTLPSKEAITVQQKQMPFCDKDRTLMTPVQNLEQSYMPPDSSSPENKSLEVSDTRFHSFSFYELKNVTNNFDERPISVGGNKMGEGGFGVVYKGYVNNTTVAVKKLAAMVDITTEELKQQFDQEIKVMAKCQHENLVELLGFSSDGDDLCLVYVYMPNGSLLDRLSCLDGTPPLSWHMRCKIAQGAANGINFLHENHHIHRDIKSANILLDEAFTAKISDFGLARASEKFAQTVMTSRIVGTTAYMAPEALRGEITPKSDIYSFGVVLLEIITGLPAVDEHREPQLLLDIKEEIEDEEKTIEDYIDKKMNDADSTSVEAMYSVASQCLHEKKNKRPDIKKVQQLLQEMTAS
In short: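 THP-1 cells (5×10^5/well) treated 24 h with compound at 1–3000 nM final. IRAK4 in lysates quantified by Western blot, normalized to internal reference and compared with control to give degradation rate; DC50 and Dmax from nonlinear fit of log concentration.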

IKZF3 in L363 cells = target: T2, IKZF3 in L363 cells (Homo sapiens, UniProt Q96SW2+Q9UKT9); assay: Degradation of IKZF3 in L363 cells (Western blot); type: cell-based; conditions: 1000 nM, 16 hours
T2 construct: endogenous in cells; host or cells: L363
Procedure: (§1) The 24-well cell culture plate was inoculated with 0.95 mL L363 cells (Nanjing Co-bioer) per well with a cell density of 6×10^5 cells/well. The cell plate was placed in a 5% carbon dioxide incubator and cultured at 37° C. for 8 hours, then 50 μL of compound solution was added. The final concentration of the compound was 1000 nM. After continuing to culture for 16 hours, the cells were collected into a 1.5 mL centrifuge tube and centrifuged at 3000 rpm and 4° C. for 5 minutes. Cell precipitation was cleaned twice with 1×DPBS, resuspended cells were lysed with 100 μL lysate (cell lysate was Western and IP cell lysate (Beyotime), supplemented with 1 mM mixture of phenylmethylsulfonyl fluoride and protease inhibitor (Beyotime)), left on ice for 30 minutes, then centrifuged at 14000 g at 4° C. for 10 minutes, and the supernatant was taken to detect IKZF1 and IKZF3 protein level by Western blot.
(§2) The total protein concentration in the supernatant of cell lysis was determined by BCA protein quantitative kit (Tiangen). According to the concentration of total protein detected by BCA, the supernatant was adjusted to 0.2 μg/μL with PBS and 5× SDS-PAGE protein loading buffer (Beyotime), bathed in water at 100° C. for 10 minutes, then placed in ice bath for 5 minutes, centrifuged at 14000 g and 4° C. for 5 minutes, and then collected as WB loading sample. Prefabricated glue (KeyGEN) was used for protein electrophoresis with a loading amount of 10 μL (total protein 2 μg). After Tris-MOPS-SDS electrophoresis solution (Adamas), 120V constant pressure electrophoresis was performed. After electrophoresis, the protein on the adhesive strip was transferred to PVDF membrane with a constant current of […] for 50 minutes. After the membrane was transferred, the membrane was incubated in 5% bovine serum albumin solution for 2 hours at room temperature. After blocking, PVDF membranes were incubated with IKZF1 primary antibody (CST) and IKZF3 primary antibody (Abcam) overnight at 4°, the membranes were washed with TBST buffer (2.4 g Tris, 8.8 g NaCl, 1.5 mL Tween 20, pH adjusted to 7.4, constant volume to IL) for 30 minutes, incubated with secondary antibody (Abcam) for 2 hours at room temperature, finally incubated with Clarity Western ECL Substrate(BIO-RAD) for 5 minutes for luminescence development, chemiluminescence imaging system (Clinx, chemiScope 6200 Touch) for development and protein mapping photography. The protein map was analyzed by Clinx chemiluminescence analysis software for grayscale values. Using the formula: grayscale correction value=(target protein grayscale value/corresponding internal reference grayscale value)×10^3, the grayscale correction value of each sample was calculated. The degradation rate was calculated by comparing with the grayscale correction value of the control group.

IKZF1 in L363 cells = target: T3, IKZF1 in L363 cells (Homo sapiens, UniProt Q13422+Q96SW2); assay: Degradation of IKZF1 in L363 cells (Western blot); type: cell-based; conditions: 1000 nM, 16 hours
T3 construct: endogenous in cells; host or cells: L363
Procedure: as §1, §2

IRAK4 kinase = target: T4, IRAK4 kinase (Homo sapiens, UniProt Q9NWZ3); assay: IRAK4 kinase activity test (KinEASE-STK S1 HTRF kit); type: biochemical; conditions: 2.5 nM kinase, 1 μM biotinylated polypeptide substrate, 7 μM ATP, 37° C. 120 min
T4 sequence (Q9NWZ3 1-460): T1 sequence (Q9NWZ3 1-460)
In short: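 Compound in DMSO, serially diluted to 10000–0.038 nM final, incubated with 2.5 nM kinase, 1 μM biotinylated peptide substrate and 7 μM ATP at 37° C for 120 min. Eu-anti-phospho-Ser/Thr antibody plus streptavidin-XL665 stopped the reaction (1 h RT). HTRF 665/620 nm ratio gave % inhibition versus control; IC50 from nonlinear log-concentration fit.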

T3 sequence (Q13422 whole entry): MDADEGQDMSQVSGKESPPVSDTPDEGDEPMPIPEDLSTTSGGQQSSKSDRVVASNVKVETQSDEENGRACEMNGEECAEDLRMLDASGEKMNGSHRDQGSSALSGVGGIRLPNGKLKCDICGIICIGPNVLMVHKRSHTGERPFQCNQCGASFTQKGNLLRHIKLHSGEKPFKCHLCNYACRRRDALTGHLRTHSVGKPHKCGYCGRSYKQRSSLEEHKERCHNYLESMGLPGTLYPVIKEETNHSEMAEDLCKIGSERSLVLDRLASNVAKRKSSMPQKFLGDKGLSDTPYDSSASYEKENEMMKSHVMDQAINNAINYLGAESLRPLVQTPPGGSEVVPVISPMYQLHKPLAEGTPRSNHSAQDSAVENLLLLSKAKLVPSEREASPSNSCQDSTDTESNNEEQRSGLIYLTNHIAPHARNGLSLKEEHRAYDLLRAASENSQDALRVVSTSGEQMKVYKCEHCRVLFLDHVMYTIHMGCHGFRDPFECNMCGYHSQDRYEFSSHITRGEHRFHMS
T3 sequence (Q96SW2 whole entry): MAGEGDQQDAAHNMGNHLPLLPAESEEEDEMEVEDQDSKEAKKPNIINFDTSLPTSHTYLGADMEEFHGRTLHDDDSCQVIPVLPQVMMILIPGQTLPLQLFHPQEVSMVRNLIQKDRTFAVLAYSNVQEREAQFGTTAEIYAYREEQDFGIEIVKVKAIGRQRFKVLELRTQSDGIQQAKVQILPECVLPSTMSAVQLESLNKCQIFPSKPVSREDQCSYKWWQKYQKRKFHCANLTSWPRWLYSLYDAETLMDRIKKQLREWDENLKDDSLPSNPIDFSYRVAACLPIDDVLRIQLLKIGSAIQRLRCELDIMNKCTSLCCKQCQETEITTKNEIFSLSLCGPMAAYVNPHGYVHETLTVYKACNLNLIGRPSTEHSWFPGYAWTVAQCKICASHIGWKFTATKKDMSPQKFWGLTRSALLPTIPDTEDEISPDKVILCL
T3 sequence (Q16531 whole entry partner): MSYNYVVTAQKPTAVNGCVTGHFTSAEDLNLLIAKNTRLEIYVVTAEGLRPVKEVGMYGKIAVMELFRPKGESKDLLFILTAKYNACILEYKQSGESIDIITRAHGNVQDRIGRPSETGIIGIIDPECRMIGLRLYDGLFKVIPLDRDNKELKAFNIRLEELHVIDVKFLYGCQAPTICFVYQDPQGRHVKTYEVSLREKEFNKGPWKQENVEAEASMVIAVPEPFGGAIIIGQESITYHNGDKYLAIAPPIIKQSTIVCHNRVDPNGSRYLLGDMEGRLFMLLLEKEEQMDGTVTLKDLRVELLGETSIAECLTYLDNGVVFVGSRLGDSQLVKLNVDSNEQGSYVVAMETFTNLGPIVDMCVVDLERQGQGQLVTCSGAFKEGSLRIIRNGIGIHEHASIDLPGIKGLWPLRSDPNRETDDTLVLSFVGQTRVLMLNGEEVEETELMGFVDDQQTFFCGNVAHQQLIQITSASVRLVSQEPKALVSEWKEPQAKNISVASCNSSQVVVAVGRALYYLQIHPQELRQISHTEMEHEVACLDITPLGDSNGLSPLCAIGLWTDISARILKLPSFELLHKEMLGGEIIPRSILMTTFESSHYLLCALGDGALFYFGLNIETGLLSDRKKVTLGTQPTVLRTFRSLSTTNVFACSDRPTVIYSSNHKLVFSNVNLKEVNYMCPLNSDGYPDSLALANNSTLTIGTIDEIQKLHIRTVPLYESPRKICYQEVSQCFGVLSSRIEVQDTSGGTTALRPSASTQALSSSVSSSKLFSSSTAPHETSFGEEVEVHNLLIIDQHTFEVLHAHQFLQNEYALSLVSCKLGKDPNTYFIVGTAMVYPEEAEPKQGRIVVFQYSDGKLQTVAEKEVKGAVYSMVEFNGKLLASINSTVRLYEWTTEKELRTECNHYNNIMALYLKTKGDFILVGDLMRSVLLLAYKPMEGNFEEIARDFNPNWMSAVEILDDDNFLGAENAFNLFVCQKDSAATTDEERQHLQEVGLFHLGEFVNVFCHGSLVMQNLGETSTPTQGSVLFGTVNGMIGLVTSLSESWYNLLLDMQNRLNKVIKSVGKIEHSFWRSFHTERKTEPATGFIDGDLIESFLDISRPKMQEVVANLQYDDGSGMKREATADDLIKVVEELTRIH
T2 sequence (Q9UKT9 whole entry): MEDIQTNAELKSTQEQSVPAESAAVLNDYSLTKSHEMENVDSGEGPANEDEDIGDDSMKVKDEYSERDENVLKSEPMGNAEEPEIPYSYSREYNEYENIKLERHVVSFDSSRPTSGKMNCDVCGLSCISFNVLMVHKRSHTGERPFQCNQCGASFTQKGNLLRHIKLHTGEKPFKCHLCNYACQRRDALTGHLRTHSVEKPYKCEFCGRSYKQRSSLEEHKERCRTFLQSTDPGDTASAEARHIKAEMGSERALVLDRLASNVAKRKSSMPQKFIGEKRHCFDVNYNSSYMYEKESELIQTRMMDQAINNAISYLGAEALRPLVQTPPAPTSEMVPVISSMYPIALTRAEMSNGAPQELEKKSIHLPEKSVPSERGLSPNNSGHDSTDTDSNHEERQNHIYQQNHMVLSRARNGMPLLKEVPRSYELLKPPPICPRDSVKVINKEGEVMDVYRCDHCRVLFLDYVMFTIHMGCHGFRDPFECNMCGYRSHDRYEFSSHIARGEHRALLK
T2 sequence (Q96SW2 whole entry): as the sequence (Q96SW2 whole entry) above
T2 sequence (Q16531 whole entry partner): as the sequence (Q16531 whole entry partner) above

DC50 [1] [nM] | Dmax [1] [%] | IKZF3 degradation rate (IKZF3 in L363 cells) [%] | IKZF1 degradation rate (IKZF1 in L363 cells) [%] | IC50 (IRAK4 kinase) [nM] | Structure (SMILES)
2.5 | 98.1 | −2.2 ± 2.8 | 10.2 ± 1.8 | 16.5 | CC(C)(O)c1cc2nn(C3CCN(CCC4CCC5(CC4)CCN(C(=O)c4ccc(F)c(N6CCC(=O)NC6=O)c4)CC5)CC3)cc2cc1NC(=O)c1cccc(C(F)(F)F)n1 [Example 34, N-(2-(1-(2-(3-(3-(2,4-dioxotetrahydro-pyrimidin-1 (2H)-yl)-4-fluoro-benzoyl)-3-azaspiro[5.5]undec-9-yl)ethyl)piperidin-4-yl)-6-(2-hydroxyprop-2-yl)-2H-indazol-5-yl)-6-(trifluoro-methyl) pyridinecarbox-amide]
4.8 | 98 | 9.8 ± 2.0 | 53.8 ± 2.0 | 35.1 | CC(C)(O)c1cc2nn(C3CCN(CCC4CCC5(CC4)CCN(C(=O)c4ccc(F)c(C6CCC(=O)NC6=O)c4)CC5)CC3)cc2cc1NC(=O)c1cccc(C(F)(F)F)n1 (stereo not drawn) [Example 40, N-(2-(1-(2-(3-(3-(2,6-dioxopiperidin-3-yl)-4-fluoro-benzoyl)-3-azaspiro [5.5]undec-9-yl)ethyl)piperidin-4-yl)-6-(2-hydroxyprop-2-yl)-2H-indazol-5-yl)-6-(trifluoro-methyl) pyridinecarbox-amide]
– | – | 98.6 ± 0.6 | 99.7 ± 0.2 | – | Nc1cccc2c1C(=O)N(C1CCC(=O)NC1=O)C2=O (stereo not drawn) [Pomalidomide]
